Reference: patent US12077503B2, “Substituted cyclic amides and their use as herbicides” (FMC CORPORATION, priority 2015, dated 2024)

Assays:
Type in all cases: in vivo
[1] = system: barnyardgrass (Echinochloa crus-galli); experiment: Test A preemergence; conditions: Echinochloa crus-galli, pre-emergence, 240 h, Preemergence; for pest or weed control at 31 g/ha: 31 g ai/ha, 0 to 100 scale where 0 is no effect and 100 is complete control, read-out: Barnyardgrass plant response rating; for pest or weed control at 125 g/ha: 125 g ai/ha, 0 to 100 scale (0 no effect, 100 complete control), read-out: Plant response rating, Barnyardgrass
Outline: (§1)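 Compounds were formulated in a non-phytotoxic solvent mixture with surfactant and applied as a preemergence directed soil spray after seeding, or sprayed postemergence over plants 2 to 10 cm tall at the one- to two-leaf stage. Evaluation after about 10 d compared treated with untreated controls, using a scale from 0 (no effect) to 100 (complete control).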

[2] = system: giant foxtail (Setaria faberii); experiment: Test A preemergence; conditions: Setaria faberi, pre-emergence, 240 h, Preemergence; for pest or weed control at 31 g/ha: 31 g ai/ha, 0 to 100 scale where 0 is no effect and 100 is complete control, read-out: Foxtail, Giant plant response rating; for pest or weed control at 125 g/ha: 125 g ai/ha, 0 to 100 scale (0 no effect, 100 complete control), read-out: Plant response rating, Foxtail, Giant
Outline: as §1

[3] = system: Kochia (Kochia scoparia); experiment: Test A preemergence; conditions: Bassia scoparia, pre-emergence, 240 h, Preemergence; for pest or weed control at 31 g/ha: 31 g ai/ha, 0 to 100 scale where 0 is no effect and 100 is complete control, read-out: Kochia plant response rating; for pest or weed control at 125 g/ha: 125 g ai/ha, 0 to 100 scale (0 no effect, 100 complete control), read-out: Plant response rating, Kochia
Outline: as §1

[4] = system: ragweed (common ragweed, Ambrosia elatior); experiment: Test A preemergence; conditions: Ambrosia artemisiifolia, pre-emergence, 240 h, Preemergence; for pest or weed control at 31 g/ha: 31 g ai/ha, 0 to 100 scale where 0 is no effect and 100 is complete control, read-out: Ragweed plant response rating; for pest or weed control at 125 g/ha: 125 g ai/ha, 0 to 100 scale (0 no effect, 100 complete control), read-out: Plant response rating, Ragweed
Outline: as §1

[5] = system: pigweed (Amaranthus retroflexus); experiment: Test A preemergence; conditions: Amaranthus retroflexus, pre-emergence, 240 h, Preemergence; for pest or weed control at 31 g/ha: 31 g ai/ha, 0 to 100 scale where 0 is no effect and 100 is complete control, read-out: Pigweed plant response rating; for pest or weed control at 125 g/ha: 125 g ai/ha, 0 to 100 scale (0 no effect, 100 complete control), read-out: Plant response rating, Pigweed
[6] = system: ryegrass, Italian (Italian ryegrass, Lolium multiflorum); experiment: Test A preemergence; conditions: Lolium multiflorum, pre-emergence, 240 h, Preemergence; for pest or weed control at 31 g/ha: 31 g ai/ha, 0 to 100 scale where 0 is no effect and 100 is complete control, read-out: Ryegrass, Italian plant response rating; for pest or weed control at 125 g/ha: 125 g ai/ha, 0 to 100 scale (0 no effect, 100 complete control), read-out: Plant response rating, Ryegrass, Italian
Outline: as §1

[7] = system: barnyardgrass (Echinochloa crus-galli); experiment: Test B flooded paddy test; conditions: Echinochloa crus-galli, 360 h, Flood, 250 g ai/ha; visually evaluated after 13 to 15 d; read-out: Plant response rating, Barnyardgrass (0 to 100 scale where 0 is no effect and 100 is complete control)
Outline: (§2)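 Greenhouse paddy pots with 2-leaf stage plants received compound by direct addition to floodwater 3 cm deep, kept at that level. Scored visually at 13–15 d versus controls (0 no effect; 100 complete control).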

[8] = system: ducksalad (Heteranthera limosa); experiment: Test B flooded paddy test; conditions: Heteranthera limosa, 360 h, Flood, 250 g ai/ha; visually evaluated after 13 to 15 d; read-out: Plant response rating, Ducksalad (0 to 100 scale where 0 is no effect and 100 is complete control)
Outline: as §2

[9] = system: sedge, umbrella (small-flower umbrella sedge, Cyperus difformis); experiment: Test B flooded paddy test; conditions: Cyperus difformis, 360 h, Flood, 250 g ai/ha; visually evaluated after 13 to 15 d; read-out: Plant response rating, Sedge, Umbrella (0 to 100 scale where 0 is no effect and 100 is complete control)
Outline: as §2

[10] = system: rice (Oryra sativa); experiment: Test B flooded paddy test; conditions: Oryza sativa, 360 h, Flood, 250 g ai/ha; visually evaluated after 13 to 15 d; read-out: Plant response rating, Rice (0 to 100 scale where 0 is no effect and 100 is complete control)
Outline: as §2

[11] = system: wheat (Triticum aestivum); experiment: Test A postemergence; conditions: Triticum aestivum, post-emergence, 240 h, Postemergence; for plant injury at 31 g/ha: 31 g ai/ha, 0 is no effect, 100 is complete control, read-out: Wheat plant response rating (0 to 100 scale); for plant injury at 125 g/ha: 125 g ai/ha, visual injury after approx. 10 d, 0 to 100 scale, 0 no effect, 100 complete control, read-out: Plant response rating, Wheat
Outline: as §1

[12] = system: barnyardgrass (Echinochloa crus-galli); experiment: Test A postemergence; conditions: Echinochloa crus-galli, post-emergence, 240 h, Postemergence; for pest or weed control at 31 g/ha: 31 g ai/ha, 0 is no effect, 100 is complete control, read-out: Barnyardgrass plant response rating (0 to 100 scale); for pest or weed control at 125 g/ha: 125 g ai/ha, visual injury after approx. 10 d, 0 to 100 scale, 0 no effect, 100 complete control, read-out: Plant response rating, Barnyardgrass
Outline: as §1

[13] = system: giant foxtail (Setaria faberii); experiment: Test A postemergence; conditions: Setaria faberi, post-emergence, 240 h, Postemergence; for pest or weed control at 31 g/ha: 31 g ai/ha, 0 is no effect, 100 is complete control, read-out: Foxtail, Giant plant response rating (0 to 100 scale); for pest or weed control at 125 g/ha: 125 g ai/ha, visual injury after approx. 10 d, 0 to 100 scale, 0 no effect, 100 complete control, read-out: Plant response rating, Foxtail, Giant
Outline: as §1

[14] = system: Galium (catchweed bedstraw, Galium aparine); experiment: Test A postemergence; conditions: Galium, post-emergence, 240 h, Postemergence; for pest or weed control at 31 g/ha: 31 g ai/ha, 0 is no effect, 100 is complete control, read-out: Galium plant response rating (0 to 100 scale); for pest or weed control at 125 g/ha: 125 g ai/ha, visual injury after approx. 10 d, 0 to 100 scale, 0 no effect, 100 complete control, read-out: Plant response rating, Galium
Outline: as §1

[15] = system: corn (Zea mays); experiment: Test A postemergence; conditions: Zea mays, post-emergence, 240 h, Postemergence; for plant injury at 31 g/ha: 31 g ai/ha, 0 is no effect, 100 is complete control, read-out: Corn plant response rating (0 to 100 scale); for Corn plant response rating (crop injury, 0 = no effect, 100 = complete kill) at 125 g/ha: 125 g ai/ha, visual injury after approx. 10 d, 0 to 100 scale, 100 complete control
Outline: as §1

[16] = system: Kochia (Kochia scoparia); experiment: Test A postemergence; conditions: Bassia scoparia, post-emergence, 240 h, Postemergence; for pest or weed control at 31 g/ha: 31 g ai/ha, 0 is no effect, 100 is complete control, read-out: Kochia plant response rating (0 to 100 scale); for pest or weed control at 125 g/ha: 125 g ai/ha, visual injury after approx. 10 d, 0 to 100 scale, 0 no effect, 100 complete control, read-out: Plant response rating, Kochia
Outline: as §1

[17] = system: ragweed (common ragweed, Ambrosia elatior); experiment: Test A postemergence; conditions: Ambrosia artemisiifolia, post-emergence, 240 h, Postemergence; for pest or weed control at 31 g/ha: 31 g ai/ha, 0 is no effect, 100 is complete control, read-out: Ragweed plant response rating (0 to 100 scale); for pest or weed control at 125 g/ha: 125 g ai/ha, visual injury after approx. 10 d, 0 to 100 scale, 0 no effect, 100 complete control, read-out: Plant response rating, Ragweed
Outline: as §1

[18] = system: pigweed (Amaranthus retroflexus); experiment: Test A postemergence; conditions: Amaranthus retroflexus, post-emergence, 240 h, Postemergence; for pest or weed control at 31 g/ha: 31 g ai/ha, 0 is no effect, 100 is complete control, read-out: Pigweed plant response rating (0 to 100 scale); for pest or weed control at 125 g/ha: 125 g ai/ha, visual injury after approx. 10 d, 0 to 100 scale, 0 no effect, 100 complete control, read-out: Plant response rating, Pigweed
Outline: as §1

[19] = system: ryegrass, Italian (Italian ryegrass, Lolium multiflorum); experiment: Test A postemergence; conditions: Lolium multiflorum, post-emergence, 240 h, Postemergence; for pest or weed control at 31 g/ha: 31 g ai/ha, 0 is no effect, 100 is complete control, read-out: Ryegrass, Italian plant response rating (0 to 100 scale); for pest or weed control at 125 g/ha: 125 g ai/ha, visual injury after approx. 10 d, 0 to 100 scale, 0 no effect, 100 complete control, read-out: Plant response rating, Ryegrass, Italian
Outline: as §1

[20] = system: blackgrass (Alopecurus myosuroides); experiment: Test A postemergence; conditions: Alopecurus myosuroides, post-emergence, 240 h, Postemergence; for pest or weed control at 31 g/ha: 31 g ai/ha, 0 is no effect, 100 is complete control, read-out: Blackgrass plant response rating (0 to 100 scale); for pest or weed control at 125 g/ha: 125 g ai/ha, visual injury after approx. 10 d, 0 to 100 scale, 0 no effect, 100 complete control, read-out: Plant response rating, Blackgrass
Outline: as §1

SMILES	pest or weed control at 31 g/ha [1] [%]	pest or weed control at 125 g/ha [1] [%]	pest or weed control at 31 g/ha [2] [%]	pest or weed control at 125 g/ha [2] [%]	pest or weed control at 31 g/ha [3] [%]	pest or weed control at 125 g/ha [3] [%]	pest or weed control at 31 g/ha [4] [%]	pest or weed control at 125 g/ha [4] [%]	pest or weed control at 31 g/ha [5] [%]	pest or weed control at 125 g/ha [5] [%]	pest or weed control at 31 g/ha [6] [%]	pest or weed control at 125 g/ha [6] [%]	pest or weed control at 250 g/ha [7] [%]	pest or weed control at 250 g/ha [8] [%]	pest or weed control at 250 g/ha [9] [%]	pest or weed control at 250 g/ha [10] [%]	plant injury at 31 g/ha [11] [%]	plant injury at 125 g/ha [11] [%]	pest or weed control at 31 g/ha [12] [%]	pest or weed control at 125 g/ha [12] [%]	further results
CN1C[C@H](c2ccc(Br)cc2)[C@@H](C(=O)Nc2ccc(F)c(F)c2F)C1=O [Compound 1393]	40	90	80	90	40	70	30	90	30	80	0	20	85	100	0	55	0	30	70	90	pest or weed control at 31 g/ha [13]: 70%; pest or weed control at 125 g/ha [13]: 90%; pest or weed control at 31 g/ha [14]: 50%; pest or weed control at 125 g/ha [14]: 60%; plant injury at 31 g/ha [15]: 0%; Corn plant response rating (crop injury, 0 = no effect, 100 = complete kill) at 125 g/ha [15]: 80%; pest or weed control at 31 g/ha [16]: 30%; pest or weed control at 125 g/ha [16]: 70%; pest or weed control at 31 g/ha [17]: 0%; pest or weed control at 125 g/ha [17]: 50%; pest or weed control at 31 g/ha [18]: 40%; pest or weed control at 125 g/ha [18]: 60%; pest or weed control at 31 g/ha [19]: 0%; pest or weed control at 125 g/ha [19]: 20%; pest or weed control at 31 g/ha [20]: 20%; pest or weed control at 125 g/ha [20]: 30%
Cc1ccc([C@H]2CN(C)C(=O)[C@@H]2C(=O)Nc2cccnc2F)cc1 [Compound 1398]	100	100	100	100	100	90	50	90	0	50	0	70	80	100	0	15	0	60	90	100	pest or weed control at 31 g/ha [13]: 90%; pest or weed control at 125 g/ha [13]: 90%; pest or weed control at 31 g/ha [14]: 30%; pest or weed control at 125 g/ha [14]: 50%; plant injury at 31 g/ha [15]: 0%; Corn plant response rating (crop injury, 0 = no effect, 100 = complete kill) at 125 g/ha [15]: 40%; pest or weed control at 31 g/ha [16]: 20%; pest or weed control at 125 g/ha [16]: 60%; pest or weed control at 31 g/ha [17]: 0%; pest or weed control at 125 g/ha [17]: 30%; pest or weed control at 31 g/ha [18]: 0%; pest or weed control at 125 g/ha [18]: 0%; pest or weed control at 31 g/ha [19]: 0%; pest or weed control at 125 g/ha [19]: 40%; pest or weed control at 31 g/ha [20]: 20%; pest or weed control at 125 g/ha [20]: 60%
